Laboratory results reported in paper PMC11864979, “First-in-class ultralong-target-residence-time p38α inhibitors as a mitosis-targeted therapy for colorectal cancer” (Nature Cancer, 2025).
Like-named read-outs stand apart in the source and are kept apart here.

Tests used:
Assay in all cases: selectivity profiling in a panel of 340 wild-type kinases (Reaction Biology Europe)
Assay type in all cases: binding
340 wild-type kinases [1] = molecular target: T1, 340 wild-type kinases (Homo sapiens, UniProt Q9UF33)
T1 construct: purchased Reaction Biology Europe
T1 sequence (Q9UF33 23-1036): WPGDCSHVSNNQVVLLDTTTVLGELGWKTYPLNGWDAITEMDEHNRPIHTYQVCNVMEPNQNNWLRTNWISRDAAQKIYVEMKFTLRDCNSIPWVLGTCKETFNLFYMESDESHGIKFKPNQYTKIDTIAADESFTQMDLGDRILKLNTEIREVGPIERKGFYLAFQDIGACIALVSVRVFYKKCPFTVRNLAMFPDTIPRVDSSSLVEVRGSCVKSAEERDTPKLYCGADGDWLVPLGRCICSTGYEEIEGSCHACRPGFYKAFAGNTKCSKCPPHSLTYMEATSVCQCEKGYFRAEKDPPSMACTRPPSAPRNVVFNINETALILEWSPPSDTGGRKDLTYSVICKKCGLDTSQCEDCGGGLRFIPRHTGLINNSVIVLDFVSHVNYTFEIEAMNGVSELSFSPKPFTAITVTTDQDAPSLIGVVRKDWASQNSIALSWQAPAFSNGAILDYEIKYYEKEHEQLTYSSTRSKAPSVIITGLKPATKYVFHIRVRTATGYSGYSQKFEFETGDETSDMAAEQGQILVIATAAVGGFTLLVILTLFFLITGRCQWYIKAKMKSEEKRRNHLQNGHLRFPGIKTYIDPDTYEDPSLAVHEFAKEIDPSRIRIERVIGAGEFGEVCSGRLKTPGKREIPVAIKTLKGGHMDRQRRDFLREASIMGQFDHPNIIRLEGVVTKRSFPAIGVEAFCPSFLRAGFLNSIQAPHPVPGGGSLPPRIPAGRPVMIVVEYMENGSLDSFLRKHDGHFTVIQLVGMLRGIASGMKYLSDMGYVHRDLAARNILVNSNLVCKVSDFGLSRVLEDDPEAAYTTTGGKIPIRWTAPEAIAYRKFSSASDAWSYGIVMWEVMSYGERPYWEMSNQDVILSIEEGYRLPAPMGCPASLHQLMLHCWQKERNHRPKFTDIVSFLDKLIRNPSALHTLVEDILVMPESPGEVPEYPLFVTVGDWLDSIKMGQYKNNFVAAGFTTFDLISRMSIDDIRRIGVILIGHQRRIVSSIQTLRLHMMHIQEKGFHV

340 wild-type kinases [2] = molecular target: T2, 340 wild-type kinases (Homo sapiens, UniProt Q9Y243)
T2 construct: purchased Reaction Biology Europe

340 wild-type kinases [3] = molecular target: T3, 340 wild-type kinases (Homo sapiens, UniProt Q16832)
T3 construct: purchased Reaction Biology Europe
T3 sequence (Q16832 22-855): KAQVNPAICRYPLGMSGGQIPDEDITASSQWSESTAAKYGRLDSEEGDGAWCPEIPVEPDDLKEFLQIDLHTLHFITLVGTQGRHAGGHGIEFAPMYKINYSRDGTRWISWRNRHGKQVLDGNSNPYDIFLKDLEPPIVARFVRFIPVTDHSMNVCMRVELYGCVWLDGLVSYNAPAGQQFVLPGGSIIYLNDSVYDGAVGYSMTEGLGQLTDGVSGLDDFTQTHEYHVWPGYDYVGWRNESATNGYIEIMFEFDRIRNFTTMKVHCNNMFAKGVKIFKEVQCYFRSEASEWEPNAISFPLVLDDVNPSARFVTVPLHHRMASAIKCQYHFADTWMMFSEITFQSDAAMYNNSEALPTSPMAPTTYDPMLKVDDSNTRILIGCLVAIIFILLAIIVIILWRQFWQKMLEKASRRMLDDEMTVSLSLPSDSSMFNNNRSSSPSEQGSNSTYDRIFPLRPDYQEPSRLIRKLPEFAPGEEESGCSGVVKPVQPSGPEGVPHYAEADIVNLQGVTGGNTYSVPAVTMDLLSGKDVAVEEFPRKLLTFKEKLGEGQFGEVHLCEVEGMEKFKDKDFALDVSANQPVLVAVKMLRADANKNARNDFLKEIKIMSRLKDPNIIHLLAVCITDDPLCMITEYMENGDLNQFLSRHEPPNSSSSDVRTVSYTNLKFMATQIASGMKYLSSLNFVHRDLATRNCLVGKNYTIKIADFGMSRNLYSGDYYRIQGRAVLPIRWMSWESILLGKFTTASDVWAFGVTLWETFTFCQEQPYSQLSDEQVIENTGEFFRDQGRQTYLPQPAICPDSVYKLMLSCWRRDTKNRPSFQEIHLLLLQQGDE

340 wild-type kinases [4] = molecular target: T4, 340 wild-type kinases (Homo sapiens, UniProt P53667)
T4 construct: purchased Reaction Biology Europe

340 wild-type kinases [5] = molecular target: T5, 340 wild-type kinases (Homo sapiens, UniProt P42680)
T5 construct: purchased Reaction Biology Europe
T5 sequence (P42680 1-631): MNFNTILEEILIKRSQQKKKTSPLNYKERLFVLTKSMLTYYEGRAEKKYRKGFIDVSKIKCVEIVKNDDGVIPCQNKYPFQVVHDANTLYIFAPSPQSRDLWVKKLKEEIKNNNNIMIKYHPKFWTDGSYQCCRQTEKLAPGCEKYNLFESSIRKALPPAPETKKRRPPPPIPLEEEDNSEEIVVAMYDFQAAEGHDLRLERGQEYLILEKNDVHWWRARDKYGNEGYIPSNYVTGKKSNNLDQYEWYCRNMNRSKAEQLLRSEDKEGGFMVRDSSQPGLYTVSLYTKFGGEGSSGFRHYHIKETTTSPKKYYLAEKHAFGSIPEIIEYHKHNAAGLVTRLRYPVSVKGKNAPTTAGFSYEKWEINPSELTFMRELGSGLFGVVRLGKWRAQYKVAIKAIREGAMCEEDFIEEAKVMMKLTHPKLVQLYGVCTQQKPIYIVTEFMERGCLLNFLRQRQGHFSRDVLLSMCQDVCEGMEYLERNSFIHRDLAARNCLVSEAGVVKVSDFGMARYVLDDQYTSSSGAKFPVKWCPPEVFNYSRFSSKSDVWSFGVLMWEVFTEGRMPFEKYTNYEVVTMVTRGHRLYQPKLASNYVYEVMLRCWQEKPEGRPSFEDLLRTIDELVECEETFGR

T2 sequence (Q9Y243 whole entry): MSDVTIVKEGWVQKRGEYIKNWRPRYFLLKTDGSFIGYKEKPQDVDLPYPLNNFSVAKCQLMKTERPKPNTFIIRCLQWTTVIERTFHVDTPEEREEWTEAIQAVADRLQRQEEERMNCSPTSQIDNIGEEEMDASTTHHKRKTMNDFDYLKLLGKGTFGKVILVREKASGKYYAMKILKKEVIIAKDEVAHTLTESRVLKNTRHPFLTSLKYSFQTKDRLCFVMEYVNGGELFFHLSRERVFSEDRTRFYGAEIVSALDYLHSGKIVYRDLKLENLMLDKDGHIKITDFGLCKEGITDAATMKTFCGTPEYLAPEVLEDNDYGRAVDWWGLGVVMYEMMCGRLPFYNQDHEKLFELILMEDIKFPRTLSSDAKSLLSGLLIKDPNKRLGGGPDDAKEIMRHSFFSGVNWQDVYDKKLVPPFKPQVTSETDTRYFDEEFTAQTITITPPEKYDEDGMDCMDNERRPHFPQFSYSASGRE
T4 sequence (P53667 whole entry): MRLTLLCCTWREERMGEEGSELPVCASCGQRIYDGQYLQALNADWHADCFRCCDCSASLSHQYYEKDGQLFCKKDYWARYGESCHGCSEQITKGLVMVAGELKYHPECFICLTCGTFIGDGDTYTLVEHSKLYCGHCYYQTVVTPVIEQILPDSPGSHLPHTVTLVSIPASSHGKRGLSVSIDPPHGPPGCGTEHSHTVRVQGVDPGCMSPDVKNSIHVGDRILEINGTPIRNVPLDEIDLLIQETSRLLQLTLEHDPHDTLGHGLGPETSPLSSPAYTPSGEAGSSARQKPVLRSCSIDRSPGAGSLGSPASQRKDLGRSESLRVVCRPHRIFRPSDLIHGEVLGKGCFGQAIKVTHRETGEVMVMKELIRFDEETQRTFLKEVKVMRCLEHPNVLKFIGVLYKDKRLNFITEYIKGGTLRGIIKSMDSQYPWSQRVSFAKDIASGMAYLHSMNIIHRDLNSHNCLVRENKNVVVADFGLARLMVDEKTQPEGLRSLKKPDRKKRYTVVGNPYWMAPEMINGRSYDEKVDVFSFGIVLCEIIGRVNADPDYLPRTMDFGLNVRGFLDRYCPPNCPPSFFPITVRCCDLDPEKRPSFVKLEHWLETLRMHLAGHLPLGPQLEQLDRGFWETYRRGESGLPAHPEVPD

CNC(=O)c1ccc2c(c1)C(=O)c1ccc(Nc3ccc(F)c(NC(=O)C4CC4)c3)cc1CC2 [Compound 2015]
remaining activity at 0.2 µM (340 wild-type kinases [1]; 0.2 µM 2015, read-out: EPHA6 residual activity): 87.2%
remaining activity at 1 µM (340 wild-type kinases [1]; 1 µM 2015, read-out: EPHA6 residual activity): 85.9%
remaining activity at 0.2 µM (340 wild-type kinases [1]; EPHA6, 0.2 µM, read-out: residual activity): 87.2%
remaining activity at 1 µM (340 wild-type kinases [1]; EPHA6, 1 µM, read-out: residual activity): 85.9%
remaining activity at 0.2 µM (340 wild-type kinases [2]; 0.2 µM 2015, read-out: AKT3 residual activity): 96%
remaining activity at 1 µM (340 wild-type kinases [2]; 1 µM 2015, read-out: AKT3 residual activity): 89.5%
remaining activity at 0.2 µM (340 wild-type kinases [2]; AKT3, 0.2 µM, read-out: residual activity): 96%
remaining activity at 1 µM (340 wild-type kinases [2]; AKT3, 1 µM, read-out: residual activity): 89.5%
remaining activity at 0.2 µM (340 wild-type kinases [3]; 0.2 µM 2015, read-out: DDR2 residual activity): 106%
remaining activity at 1 µM (340 wild-type kinases [3]; 1 µM 2015, read-out: DDR2 residual activity): 98.8%
remaining activity at 0.2 µM (340 wild-type kinases [3]; DDR2, 0.2 µM, read-out: residual activity): 106%
remaining activity at 1 µM (340 wild-type kinases [3]; DDR2, 1 µM, read-out: residual activity): 98.8%
remaining activity at 0.2 µM (340 wild-type kinases [4]; 0.2 µM 2015, read-out: LIMK1 residual activity): 102%
remaining activity at 1 µM (340 wild-type kinases [4]; 1 µM 2015, read-out: LIMK1 residual activity): 92.9%
remaining activity at 0.2 µM (340 wild-type kinases [4]; LIMK1, 0.2 µM, read-out: residual activity): 102%
remaining activity at 1 µM (340 wild-type kinases [4]; LIMK1, 1 µM, read-out: residual activity): 92.9%
remaining activity at 0.2 µM (340 wild-type kinases [5]; 0.2 µM 2015, read-out: TEC residual activity): 120%
remaining activity at 1 µM (340 wild-type kinases [5]; 1 µM 2015, read-out: TEC residual activity): 108%
remaining activity at 0.2 µM (340 wild-type kinases [5]; TEC, 0.2 µM, read-out: residual activity): 120%
remaining activity at 1 µM (340 wild-type kinases [5]; TEC, 1 µM, read-out: residual activity): 108%
